Where two headings read alike, the source gives them in different places.
What was measured:
Assay type in all cases: in vivo
[1] = system: velvetleaf (Abutilon theophrasti); assay: Test A greenhouse herbicide test, pre- and postemergence; conditions: Abutilon theophrasti, 240 h; for pest or weed control at 125 g/ha: 125 g ai/ha; for pest or weed control at 500 g/ha: 500 g ai/ha; for pest or weed control at 500 g/ha / pest or weed control at 1000 g/ha: 0 to 100 scale; for pest or weed control at 1000 g/ha: 1000 g ai/ha
Outline: (§1)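 Seeds sown in loam–sand blend got a preemergence directed soil spray of compound in non-phytotoxic solvent with surfactant. Postemergence treatment was given at 2–10 cm, one- to two-leaf stage. After ~10 d in greenhouse, injury was rated visually vs untreated controls, 0 (no effect) to 100 (complete control).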

[2] = system: momingglory (Ipomoea spp.); assay: as above; conditions: Ipomoea, 240 h; for pest or weed control at 125 g/ha: 125 g ai/ha; for pest or weed control at 500 g/ha: 500 g ai/ha; for pest or weed control at 500 g/ha / pest or weed control at 1000 g/ha: 0 to 100 scale; for pest or weed control at 1000 g/ha: 1000 g ai/ha
Outline: as §1

[3] = system: crabgrass, large (large crabgrass, Digitaria sanguinalis); assay: as above; conditions: Digitaria sanguinalis, 240 h; for pest or weed control at 125 g/ha: 125 g ai/ha; for pest or weed control at 500 g/ha: 500 g ai/ha; for pest or weed control at 500 g/ha / pest or weed control at 1000 g/ha: 0 to 100 scale; for pest or weed control at 1000 g/ha: 1000 g ai/ha
Outline: as §1

[4] = system: wild poinsettia (Euphorbia heterophylla); assay: Test E greenhouse herbicide test, pre- and postemergence
Outline: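 Visual rating vs untreated controls, 0 = no effect, 100 = complete control, after 14–21 d greenhouse. Pre: seeded silt loam treated with surfactant-containing solvent formulation. Post: 1–4-leaf plants (2–18 cm) in peat/vermiculite medium.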

[5] = post-emergence, Postemergence, 0 is no effect, 100 is complete control, read-out: Velvetleaf plant response rating
[6] = pre-emergence, Preemergence, 0 no effect, 100 complete control, read-out: Plant response rating, Velvetleaf
[7] = post-emergence, Postemergence, 0 is no effect, 100 is complete control, read-out: Morningglory plant response rating
[8] = pre-emergence, Preemergence, 0 no effect, 100 complete control, read-out: Plant response rating, Morningglory
[9] = post-emergence, Postemergence, 0 is no effect, 100 is complete control, read-out: Crabgrass, Large plant response rating
[10] = pre-emergence, Preemergence, 0 no effect, 100 complete control, read-out: Plant response rating, Crabgrass, Large
[11] = 62 g ai/ha, Postemergence, scale 0 to 100 (0 no effect, 100 complete control)
[12] = 125 g ai/ha, Postemergence, scale 0 to 100 (0 no effect, 100 complete control)
[13] = 250 g ai/ha, Postemergence, scale 0 to 100 (0 no effect, 100 complete control)
[14] = Postemergence, 31 g ai/ha, visual, scale 0 no effect to 100 complete control
[15] = 62 g ai/ha, Preemergence, scale 0 to 100 (0 no effect, 100 complete control)
[16] = 125 g ai/ha, Preemergence, scale 0 to 100 (0 no effect, 100 complete control)
[17] = Preemergence, 31 g ai/ha, scale 0 to 100, 0 no effect, 100 complete control
[18] = Preemergence, 250 g ai/ha, visual, scale 0 no effect to 100 complete control
[19] = Preemergence, 16 g ai/ha, scale 0 to 100, 0 no effect, 100 complete control
[20] = Postemergence, 16 g ai/ha, visual, scale 0 no effect to 100 complete control

Compound	Plant response rating, Poinsettia, Wild [4, 11]	Plant response rating, Poinsettia, Wild [4, 12]	Plant response rating, Poinsettia, Wild [4, 13]	Plant response rating, Poinsettia, Wild [4, 14]	Plant response rating, Poinsettia, Wild [4, 15]	Plant response rating, Poinsettia, Wild [4, 16]	Plant response rating, Poinsettia, Wild [4, 17]	Plant response rating, Poinsettia, Wild [4, 18]	also measured
Cc1nn(C)c(=O)c(-c2c(C)oc3cccc(C)c23)c1O [Compound 8, 4-(2,4-dimethyl-3-benzofuranyl)-5-hydroxy-2,6-dimethyl-3(2H)-pyridazinone]									pest or weed control at 125 g/ha ([1]; post-emergence, Postemergence, visual rating after approx. 10 d, 0 to 100 scale (0 no effect, 100 complete control), read-out: Plant response rating, Velvetleaf): 60%; pest or weed control at 500 g/ha [1, 5]: 60%; pest or weed control at 125 g/ha ([1]; pre-emergence, Preemergence, 0 to 100 scale where 0 is no effect and 100 is complete control, read-out: Velvetleaf plant response rating): 0%; pest or weed control at 500 g/ha [1, 6]: 30%; pest or weed control at 125 g/ha ([2]; post-emergence, Postemergence, visual rating after approx. 10 d, 0 to 100 scale (0 no effect, 100 complete control), read-out: Plant response rating, Morningglory): 0%; pest or weed control at 500 g/ha [2, 7]: 10%; pest or weed control at 125 g/ha ([2]; pre-emergence, Preemergence, 0 to 100 scale where 0 is no effect and 100 is complete control, read-out: Morningglory plant response rating): 0%; pest or weed control at 500 g/ha [2, 8]: 0%; pest or weed control at 125 g/ha ([3]; post-emergence, Postemergence, visual rating after approx. 10 d, 0 to 100 scale (0 no effect, 100 complete control), read-out: Plant response rating, Crabgrass, Large): 0%; pest or weed control at 500 g/ha [3, 9]: 30%; pest or weed control at 125 g/ha ([3]; pre-emergence, Preemergence, 0 to 100 scale where 0 is no effect and 100 is complete control, read-out: Crabgrass, Large plant response rating): 10%; pest or weed control at 500 g/ha [3, 10]: 60%
CCc1oc2ccc(C)cc2c1-c1c(O)c(C)nn(C)c1=O [Compound 10, 4-(2-ethyl-5-methyl-3-benzofuranyl)-5-hydroxy-2,6-dimethyl-3(2H)-pyridazinone]									pest or weed control at 1000 g/ha [1, 5]: 100%; pest or weed control at 1000 g/ha [1, 6]: 90%; pest or weed control at 1000 g/ha [2, 7]: 100%; pest or weed control at 1000 g/ha [2, 8]: 90%; pest or weed control at 1000 g/ha [3, 9]: 70%; pest or weed control at 1000 g/ha [3, 10]: 90%
Cc1nn(C)c(=O)c(-c2cccc3ccccc23)c1O [Compound 11, 5-hydroxy-2,6-dimethyl-4-(1-naphthalenyl)-3(2H)-pyridazinone]									pest or weed control at 1000 g/ha [1, 5]: 100%; pest or weed control at 1000 g/ha [1, 6]: 80%; pest or weed control at 1000 g/ha [2, 7]: 90%; pest or weed control at 1000 g/ha [2, 8]: 90%; pest or weed control at 1000 g/ha [3, 9]: 70%; pest or weed control at 1000 g/ha [3, 10]: 80%
Cn1nc(Br)c(O)c(-c2cccc3ccccc23)c1=O [Compound 20]	20	30	30	0					
Cc1nn(C)c(=O)c(-c2ccc(F)c3ccccc23)c1O [Compound 41]					40	40	15	65	
CCc1sc2ccc(C)cc2c1-c1c(O)c(C)nn(C)c1=O [Compound 47]	15	25	30	10	0	0	0	20	
CCc1sc2c(C)cc(C)cc2c1-c1c(O)c(C)nn(C)c1=O [Compound 57]	10	30	20	10	20	25	0	50	
Cc1ccc2ccccc2c1-c1c(OC(=O)OC(C)C)c(C)nn(C)c1=O [Compound 72]	40	65	75	30	15	10	0	20	
Cc1ccc2sc(Br)c(-c3c(O)c(C)nn(C)c3=O)c2c1 [Compound 79]	10	20	10	10	60	60	50	55	
COC(=O)Oc1c(C)nn(C)c(=O)c1-c1c(C)sc2ccc(C)cc12 [Compound 80]					0	40	0		Plant response rating, Poinsettia, Wild [4, 19]: 0
CC(=O)Oc1c(C)nn(C)c(=O)c1-c1c(C)cc(C)c2ccccc12 [Compound 99]	40	50		30					Plant response rating, Poinsettia, Wild [4, 20]: 35
CCCC(=O)Oc1c(C)nn(C)c(=O)c1-c1c(C)sc2ccc(C)cc12 [Compound 105]	25	30		30	10	10	10		Plant response rating, Poinsettia, Wild [4, 20]: 30; Plant response rating, Poinsettia, Wild [4, 19]: 0
Cc1nn(C)c(=O)c(-c2cccc3ccc(Br)cc23)c1O [Compound 126]	20	50	50	30					

Reference: patent publication US10597388B2, “Pyridazinone herbicides” (FMC CORPORATION, priority 2014, dated 2020)
